Laboratory results: PubChem BioAssay (NCI)
“And” between values parts separate entries of the source, which are not always exact repeats. Equal entries are not always repeated.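 Dose response: 5 concentrations. Exposure: 48 h. Format: 96-well plates. Endpoint: linear interpolation; highest concentration if not reached. GI50 marks 50% less growth. At the TGI there is no net growth.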

How the values were obtained:
Assay in all cases: DTP human tumour cell line panel, 48 h
[1] = test system: HT29 colon
[2] = test system: ACHN renal
[3] = test system: SNB-19 CNS
[4] = test system: MOLT-4 leukemia
[5] = test system: U251 CNS
[6] = test system: UO-31 renal
[7] = test system: OVCAR-5 ovarian
[8] = test system: MALME-3M melanoma
[9] = test system: CAKI-1 renal
[10] = test system: HL-60(TB) leukemia
[11] = test system: MDA-MB-231 breast
[12] = test system: IGROV1 ovarian
[13] = test system: MDA-N
[14] = test system: LOX IMVI melanoma
[15] = test system: HCT-116 colon
[16] = test system: MDA-MB-435
[17] = test system: SW-620 colon
[18] = test system: CCRF-CEM leukemia
[19] = test system: NCI-H460 lung
[20] = test system: SN12C renal
[21] = test system: SK-MEL-28 melanoma
[22] = test system: T-47D breast
[23] = test system: COLO 205 colon
[24] = test system: OVCAR-3 ovarian
[25] = test system: 786-0 renal
[26] = test system: NCI-H23 lung
[27] = test system: EKVX NSCLC
[28] = test system: SNB-75 CNS
[29] = test system: DU-145 prostate
[30] = test system: KM12 colon
[31] = test system: HCC-2998 colon
[32] = test system: SF-268 CNS
[33] = test system: SF-295 CNS
[34] = test system: SR leukemia
[35] = test system: PC-3 prostate
[36] = test system: MCF7 breast
[37] = test system: OVCAR-8 ovarian
[38] = test system: A549 NSCLC
[39] = test system: HCT-15 colon
[40] = test system: NCI/ADR-RES ovarian
[41] = test system: RXF 393 renal
[42] = test system: HOP-62 NSCLC
[43] = test system: OVCAR-4 ovarian
[44] = test system: NCI-H522 lung
[45] = test system: UACC-257 melanoma
[46] = test system: HOP-92 NSCLC
[47] = test system: SF-539 CNS
[48] = test system: TK-10 renal
[49] = test system: UACC-62 melanoma
[50] = test system: A498 renal
[51] = test system: SK-MEL-2 melanoma
[52] = test system: M14 melanoma
[53] = test system: K-562 leukemia
[54] = test system: SK-OV-3 ovarian
[55] = test system: NCI-H226 lung

O=C1NC(c2cccc3ccccc23)Nc2ccc(Cl)cc21 (stereo unspecified)
TGI [1]: 0.105 µM | TGI [2]: 10.7 µM | TGI [3]: > 100 µM | TGI [4]: 0.00987 µM | TGI [5]: 0.022 µM and 0.0266 µM | TGI [6]: 0.00836 µM | GI50 [7]: 0.0291 µM | TGI [7]: 0.085 µM | TGI [8]: 37.7 µM | GI50 [9]: 0.0109 µM | TGI [9]: 11.2 µM | TGI [10]: 0.000441 µM | TGI [11]: 30.3 µM | TGI [12]: 32.9 µM | TGI [13]: 0.000218 µM | TGI [14]: 14.6 µM | TGI [15]: 12.1 µM | TGI [16]: 0.000257 µM | TGI [17]: 17.2 µM | TGI [18]: 0.0512 µM | TGI [19]: 0.279 µM | TGI [20]: 17.9 µM | TGI [21]: 20.6 µM | TGI [22]: 68.5 µM | TGI [23]: 0.0175 µM and 0.0795 µM | TGI [24]: 0.0151 µM and 0.0303 µM | TGI [25]: 23.1 µM | GI50 [26]: 0.011 µM | TGI [26]: 14.9 µM | GI50 [27]: 0.0129 µM | TGI [27]: 83.3 µM | TGI [28]: 0.000902 µM | TGI [29]: 0.169 µM and 1.43 µM | TGI [30]: 0.803 µM | TGI [31]: 0.285 µM and 0.0607 µM | TGI [32]: 23.3 µM | TGI [33]: 0.0232 µM | TGI [34]: 0.000654 µM | TGI [35]: 0.0148 µM and 0.0143 µM | GI50 [36]: 0.0129 µM | TGI [36]: > 100 µM | TGI [37]: 11.4 µM | TGI [38]: > 100 µM | TGI [39]: 0.269 µM | TGI [40]: 0.0115 µM | TGI [41]: 0.0261 µM | TGI [42]: 11.9 µM

S=c1[nH]nc(COc2ccc(Cl)cc2)n1-c1ccccc1
TGI [1]: > 100 µM | TGI [43]: > 100 µM | TGI [2]: > 100 µM | TGI [3]: > 100 µM | TGI [4]: > 100 µM | TGI [5]: > 100 µM | TGI [6]: > 100 µM | TGI [44]: 23.3 µM | TGI [7]: > 100 µM | TGI [8]: > 100 µM | TGI [9]: 65.8 µM | TGI [10]: > 100 µM | TGI [11]: > 100 µM | TGI [45]: > 100 µM | TGI [12]: > 100 µM | TGI [46]: > 100 µM | TGI [13]: > 100 µM | TGI [14]: > 100 µM | TGI [15]: > 100 µM | TGI [16]: > 100 µM | TGI [17]: > 100 µM | TGI [18]: > 100 µM | TGI [19]: > 100 µM | TGI [20]: > 100 µM | TGI [21]: > 100 µM | TGI [22]: > 100 µM | TGI [23]: > 100 µM | TGI [47]: > 100 µM | TGI [24]: > 100 µM | TGI [25]: > 100 µM | TGI [26]: > 100 µM | TGI [27]: > 100 µM | TGI [28]: > 100 µM | TGI [29]: > 100 µM | TGI [48]: > 100 µM | TGI [49]: > 100 µM | TGI [50]: > 100 µM | TGI [30]: > 100 µM | TGI [31]: > 100 µM | TGI [51]: > 100 µM | TGI [32]: > 100 µM | TGI [33]: > 100 µM | TGI [52]: > 100 µM | TGI [35]: > 100 µM | TGI [53]: > 100 µM | TGI [36]: > 100 µM | TGI [37]: > 100 µM | TGI [54]: > 100 µM | TGI [38]: > 100 µM | TGI [55]: > 100 µM | TGI [39]: > 100 µM | TGI [40]: > 100 µM | TGI [41]: > 100 µM | TGI [42]: > 100 µM
